SMILES | melting point
O=C1CC(c2cccc(-c3csc(C(=O)NCCO)n3)c2)=Nc2ccc(-n3cccc3)cc2N1 [Example 32, 4-[3-(4-oxo-7-Pyrrol-1-yl-4,5-dihydro-3H-benzo[b][1,4]diazepin-2-yl)-phenyl]-thiazole-2-carboxylic Acid (2-Hydroxy-ethyl)-amide] | 236 to 238 °C
O=C1CC(c2cccc(-c3csc(CO)n3)c2)=Nc2ccc(-n3cccc3)cc2N1 [Example 33, 4-[3-(2-Hydroxymethyl-thiazol-4-yl)-phenyl]-8-pyrrol-1-yl-1,3-dihydro-benzo[b][1,4]diazepin-2-one] | 185 to 190 °C (dec.)
N#CCc1cc2c(cc1I)NC(=O)CC(c1cccc(-n3ccnc3)c1)=N2 [Example 37, [4-(3-Imidazol-1-yl-phenyl)-8-iodo-2-oxo-2,3-dihydro-1H-benzo[b][1,4]diazepin-7-yl]-acetonitrile] | 243 to 245 °C
O=C1CC(c2cccc(-c3cc(CO)no3)c2)=Nc2cc(N3CCOCC3)c(C(F)(F)F)cc2N1 [Example 39, 4-[3-(3-Hydroxymethyl-isoxazol-5-yl)-phenyl]-7-morpholin-4-yl-8-trifluoromethyl-1,3-dihydro-benzo[b][1,4]diazepin-2-one] | 196 °C
Cc1cc(-c2cccc(C3=Nc4cc(N5CCSCC5)c(C(F)(F)F)cc4NC(=O)C3)c2)on1 [Example 41, 4-[3-(3-Methyl-isoxazol-5-yl)-phenyl]-7-thiomorpholin-4-yl-8-trifluoromethyl-1,3-dihydro-benzo[b][1,4]diazepin-2-one] | 230 to 233 °C
COc1cc2c(cc1C(F)(F)F)NC(=O)CC(c1ccnc(C#N)c1)=N2 [Example 44, 4-(8-Methoxy-4-oxo-7-trifluoromethyl-4,5-dihydro-3H-benzo[b][1,4]diazepin-2-yl)-pyridine-2-carbonitrile] | 227 °C
COc1cc2c(cc1C(F)(F)F)NC(=O)CC(c1cccc(-c3cc(C)no3)c1)=N2 [Example 45, 7-Methoxy-4-[3-(3-methyl-isoxazol-5-yl)-phenyl]-8-trifluoromethyl-1,3-dihydro-benzo[b][1,4]diazepin-2-one] | 225 °C
O=C1CC(c2cccc(-n3cccn3)c2)=Nc2cc(N3CCOCC3)c(C(F)(F)F)cc2N1 [Example 49, 7-Morpholin-4-yl-4-(3-pyrazol-1-yl-phenyl)-8-trifluoromethyl-1,3-dihydro-benzo[b][1,4]diazepin-2-one] | 166 °C
O=C1CC(c2cccc(-n3cnnc3)c2)=Nc2cc(N3CCOCC3)c(C(F)(F)F)cc2N1 [Example 50, 7-Morpholin-4-yl-4-(3-[1,2,4]triazol-4-yl-phenyl)-8-trifluoromethyl-1,3-dihydro-benzo[b][1,4]diazepin-2-one] | 233 to 236 °C
CCOc1cc2c(cc1C(F)(F)F)NC(=O)CC(c1cccc(-n3ccnn3)c1)=N2 [Example 56, 7-Ethoxy-4-(3-[1,2,3]triazol-1-yl-phenyl)-8-trifluoromethyl-1,3-dihydro-benzo[b][1,4]diazepin-2-one] | 215 °C
N#Cc1cccc(C2=Nc3cc(N4CCOCC4)c(C#N)cc3NC(=O)C2)c1 [Example 59, 2-(3-Cyano-phenyl)-8-morpholin-4-yl-4-oxo-4,5-dihydro-3H-benzo[b][1,4]diazepine-7-carbonitrile] | 259 °C
N#Cc1cc2c(cc1N1CCOCC1)N=C(c1cccc(-n3nncc3CO)c1)CC(=O)N2 [Example 60, 2-[3-(5-Hydroxymethyl-[1,2,3]triazol-1-yl)-phenyl]-8-morpholin-4-yl-4-oxo-4,5-dihydro-3H-benzo[b][1,4]diazepine-7-carbonitrile] | 180 °C
Cc1cc(-c2cccc(C3=Nc4cc(N5CCOCC5)c(C#N)cc4NC(=O)C3)c2)on1 [Example 61, 2-[3-(3-Methyl-isoxazol-5-yl)-phenyl]-8-morpholin-4-yl-4-oxo-4,5-dihydro-3H-benzo[b][1,4]diazepine-7-carbonitrile] | 252 °C
Cc1cc(-c2cccc(C3=Nc4cc(C)c(C(F)(F)F)cc4NC(=O)C3)c2)on1 [Example 70, 7-Methyl-4-[3-(3-methyl-isoxazol-5-yl)-phenyl]-8-trifluoromethyl-1,3-dihydro-benzo[b][1,4]diazepin-2-one] | 240 °C

Second part, the compound after the results:

melting point | SMILES
180 °C | CN(C)Cc1cnnn1-c1cccc(C2=Nc3cc(N4CCOCC4)c(C(F)(F)F)cc3NC(=O)C2)c1 [Example 40, 4-[3-(5-Dimethylaminomethyl-[1,2,3]triazol-1-yl)-phenyl]-7-morpholin-4-yl-8-trifluoromethyl-1,3-dihydro-benzo[b][1,4]diazepin-2-one]
197 to 199 °C | O=C1CC(c2cccc(-n3nncc3CO)c2)=Nc2cc(F)c(C(F)(F)F)cc2N1 [Example 51, 7-Fluoro-4-[3-(5-hydroxymethyl-[1,2,3]triazol-1-yl)-phenyl]-8-trifluoromethyl-1,3-dihydro-benzo[b][1,4]diazepin-2-one]
80 °C | CCOc1cc2c(cc1C(F)(F)F)NC(=O)CC(c1cccc(-n3nncc3CNC3CC3)c1)=N2 [Example 54, 4-[3-(5-Cyclopropylaminomethyl-[1,2,3]triazol-1-yl)-phenyl]-7-ethoxy-8-trifluoromethyl-1,3-dihydro-benzo[b][1,4]diazepin-2-one]
198 °C | O=C1CC(c2cccc(-n3nncc3CO)c2)=Nc2cc(Cl)c(C(F)(F)F)cc2N1 [Example 63, 7-Chloro-4-[3-(5-hydroxymethyl-[1,2,3]triazol-1-yl)-phenyl]-8-trifluoromethyl-1,3-dihydro-benzo[b][1,4]diazepin-2-one]
212 °C | O=C1CC(c2cccc(-n3ncnc3CO)c2)=Nc2cc(Cl)c(C(F)(F)F)cc2N1 [Example 64, 7-Chloro-4-[3-(5-hydroxymethyl-[1,2,4]triazol-1-yl)-phenyl]-8-trifluoromethyl-1,3-dihydro-benzo[b][1,4]diazepin-2-one]
252 °C | Cc1cc(-c2cccc(C3=Nc4cc(Cl)c(C(F)(F)F)cc4NC(=O)C3)c2)on1 [Example 65, 7-Chloro-4-[3-(3-methyl-isoxazol-5-yl)-phenyl]-8-trifluoromethyl-1,3-dihydro-benzo[b][1,4]diazepin-2-one]
191 °C | O=C1CC(c2cccc(-n3ncnc3CNC3CC3)c2)=Nc2cc(Cl)c(C(F)(F)F)cc2N1 [Example 66, 7-Chloro-4-[3-(5-cyclopropylaminomethyl-[1,2,4]triazol-1-yl)-phenyl]-8-trifluoromethyl-1,3-dihydro-benzo[b][1,4]diazepin-2-one]
215 °C | Cc1cc2c(cc1C(F)(F)F)NC(=O)CC(c1cccc(-n3nncc3CO)c1)=N2 [Example 68, 4-[3-(5-Hydroxymethyl-[1,2,3]triazol-1-yl)-phenyl]-7-methyl-8-trifluoromethyl-1,3-dihydro-benzo[b][1,4]diazepin-2-one]
258 °C | O=C1CC(c2cccc(-n3cncn3)c2)=Nc2cc(Cl)c(C(F)(F)F)cc2N1 [Example 71, 7-Chloro-4-(3-[1,2,4]triazol-1-yl-phenyl)-8-trifluoromethyl-1,3-dihydro-benzo[b][1,4]diazepin-2-one]
225 °C | O=C1CC(c2cccc(-n3ccnc3)c2)=Nc2cc(Cl)c(C(F)(F)F)cc2N1 [Example 72, 7-Chloro-4-(3-imidazol-1-yl-phenyl)-8-trifluoromethyl-1,3-dihydro-benzo[b][1,4]diazepin-2-one]

From patent publication US6548495B2, “Dihydro-benzo [B] [1,4] diazepin-2-one derivatives” (Hoffmann-La Roche Inc., priority 2002, dated 2003)
